Our source for the remaining activity values is article PMC5564600 (Oncotarget, 2017).

Holding throughout (assay): biochemical
Holding throughout (assay type): binding

In test [1] the target is T1, panel of 442 kinases (Homo sapiens, UniProt Q96BR1).
T1 construct: purchased Ambit Biosciences (scanMAXX KINOMEscan)
T1 sequence (Q96BR1 1-496): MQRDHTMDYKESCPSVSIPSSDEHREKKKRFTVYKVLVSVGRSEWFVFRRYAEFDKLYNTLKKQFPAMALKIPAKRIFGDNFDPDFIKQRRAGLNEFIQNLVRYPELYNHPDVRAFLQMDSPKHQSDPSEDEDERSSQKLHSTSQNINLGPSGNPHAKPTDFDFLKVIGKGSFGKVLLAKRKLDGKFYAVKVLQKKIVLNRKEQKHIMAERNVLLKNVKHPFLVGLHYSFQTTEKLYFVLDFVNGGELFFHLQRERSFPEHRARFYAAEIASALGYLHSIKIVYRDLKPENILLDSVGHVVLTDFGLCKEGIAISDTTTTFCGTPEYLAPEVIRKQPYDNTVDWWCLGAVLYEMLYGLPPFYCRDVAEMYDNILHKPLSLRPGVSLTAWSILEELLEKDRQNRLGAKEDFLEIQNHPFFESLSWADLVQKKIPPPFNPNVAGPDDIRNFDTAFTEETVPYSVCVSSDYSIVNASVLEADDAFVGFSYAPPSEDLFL
As to conditions: kinase SGK3; for remaining activity at 1 µM: read-out: SGK3 (% of control at 1 µM).

Test [2] addresses T2, panel of 442 kinases (Homo sapiens, UniProt O15197).
T2 construct: purchased Ambit Biosciences (scanMAXX KINOMEscan)
T2 sequence (O15197 32-1021): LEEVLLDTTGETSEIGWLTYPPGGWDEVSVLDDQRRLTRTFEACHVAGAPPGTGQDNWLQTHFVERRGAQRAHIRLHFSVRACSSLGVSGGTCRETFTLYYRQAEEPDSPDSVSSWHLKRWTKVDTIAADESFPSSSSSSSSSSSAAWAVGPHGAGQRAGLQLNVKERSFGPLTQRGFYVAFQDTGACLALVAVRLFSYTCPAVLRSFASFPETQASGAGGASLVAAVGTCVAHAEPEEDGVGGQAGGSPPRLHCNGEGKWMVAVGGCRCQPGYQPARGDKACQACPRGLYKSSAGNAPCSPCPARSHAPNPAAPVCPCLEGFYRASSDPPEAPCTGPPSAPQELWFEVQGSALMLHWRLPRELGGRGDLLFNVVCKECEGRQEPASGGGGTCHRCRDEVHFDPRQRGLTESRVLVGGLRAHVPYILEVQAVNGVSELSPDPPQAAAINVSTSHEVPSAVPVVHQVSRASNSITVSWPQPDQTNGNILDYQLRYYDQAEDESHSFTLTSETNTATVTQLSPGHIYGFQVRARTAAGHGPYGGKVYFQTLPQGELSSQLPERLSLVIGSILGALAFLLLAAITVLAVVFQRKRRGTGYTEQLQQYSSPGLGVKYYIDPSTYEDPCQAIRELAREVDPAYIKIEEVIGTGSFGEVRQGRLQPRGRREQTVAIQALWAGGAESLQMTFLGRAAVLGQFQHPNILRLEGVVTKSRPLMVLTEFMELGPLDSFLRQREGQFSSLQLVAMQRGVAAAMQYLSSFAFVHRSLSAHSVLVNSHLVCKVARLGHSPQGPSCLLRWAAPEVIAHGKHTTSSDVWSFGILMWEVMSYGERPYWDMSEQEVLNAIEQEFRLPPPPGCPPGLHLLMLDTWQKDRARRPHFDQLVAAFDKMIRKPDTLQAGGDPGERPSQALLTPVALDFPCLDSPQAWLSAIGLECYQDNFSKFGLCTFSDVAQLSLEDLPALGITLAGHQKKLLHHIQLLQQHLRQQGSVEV
To be noted: EPHB6; for remaining activity at 1 µM: read-out: % of control at 1 µM.

The target of test [3] is T3, panel of 442 kinases (Homo sapiens, UniProt Q96L34).
T3 construct: purchased Ambit Biosciences (scanMAXX KINOMEscan)
T3 sequence (Q96L34 1-752): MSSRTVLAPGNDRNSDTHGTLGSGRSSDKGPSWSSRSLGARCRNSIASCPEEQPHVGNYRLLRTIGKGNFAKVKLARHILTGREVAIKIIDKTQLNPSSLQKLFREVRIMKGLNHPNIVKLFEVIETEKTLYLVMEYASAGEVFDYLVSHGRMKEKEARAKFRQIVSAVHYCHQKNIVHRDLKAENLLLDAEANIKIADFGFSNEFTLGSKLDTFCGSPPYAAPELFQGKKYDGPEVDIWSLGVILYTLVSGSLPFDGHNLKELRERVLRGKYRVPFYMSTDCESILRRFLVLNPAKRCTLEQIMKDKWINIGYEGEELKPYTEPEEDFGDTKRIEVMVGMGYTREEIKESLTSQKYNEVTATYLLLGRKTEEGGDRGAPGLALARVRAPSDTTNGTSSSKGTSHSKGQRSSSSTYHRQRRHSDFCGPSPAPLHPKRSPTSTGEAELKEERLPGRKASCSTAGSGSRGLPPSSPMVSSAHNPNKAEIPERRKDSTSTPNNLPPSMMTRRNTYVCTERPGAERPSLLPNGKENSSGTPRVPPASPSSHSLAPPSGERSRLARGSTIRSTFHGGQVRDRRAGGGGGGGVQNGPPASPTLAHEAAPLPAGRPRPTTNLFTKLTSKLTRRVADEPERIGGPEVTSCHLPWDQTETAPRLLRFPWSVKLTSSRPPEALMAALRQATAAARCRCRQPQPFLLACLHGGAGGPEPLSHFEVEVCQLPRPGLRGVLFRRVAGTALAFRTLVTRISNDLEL
As to conditions: kinase MARK4; for remaining activity at 1 µM: read-out: % of control at 1 µM.

Test [4] addresses T4, panel of 442 kinases (Homo sapiens, UniProt Q15759).
T4 construct: purchased Ambit Biosciences (scanMAXX KINOMEscan)
To be noted: kinase p38-beta; for remaining activity at 1 µM: read-out: % of control at 1 µM.

[5] abbreviates: 10 µM, read-out: % of control at 10 µM.

T4 sequence (Q15759 whole entry): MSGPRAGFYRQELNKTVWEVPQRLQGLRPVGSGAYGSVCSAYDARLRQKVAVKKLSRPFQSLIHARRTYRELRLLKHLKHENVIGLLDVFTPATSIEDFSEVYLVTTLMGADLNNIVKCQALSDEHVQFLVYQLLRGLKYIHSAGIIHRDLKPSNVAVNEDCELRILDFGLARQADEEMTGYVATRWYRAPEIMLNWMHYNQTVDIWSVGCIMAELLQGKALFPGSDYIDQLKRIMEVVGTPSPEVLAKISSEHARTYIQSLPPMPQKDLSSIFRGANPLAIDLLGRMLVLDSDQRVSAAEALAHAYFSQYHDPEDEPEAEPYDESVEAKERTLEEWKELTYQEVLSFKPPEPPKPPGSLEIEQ

In the case of `Nc1cc(C(F)(F)F)c(-c2cc(N3CCOCC3)nc(N3CCOCC3)n2)cn1` [Buparlisib], the remaining activity at 1 µM in test [1] was 79%; in test [2] it was 76%; in test [3], 100%; in test [4], 99%. For the same compound, the remaining activity at 10 µM in test [1] (10 µM, read-out: SGK3 (% of control at 10 µM)) is 100%; in test [2] (setting [5]), 89%; in test [3] (setting [5]) it was 91%; in test [4] (setting [5]) it was 91%.

Regarding `Cn1c(=O)n(-c2ccc(C(C)(C)C#N)cc2)c2c3cc(-c4cnc5ccccc5c4)ccc3ncc21` [Dactolisib, 2-methyl-2-[4-(3-methyl-2-oxo-8-quinolin-3-yl-2,3-dihydroimidazo[4,5-c]quinolin-1-yl)-phenyl] propionitrile], the remaining activity at 1 µM in test [1] stood at 100%; in test [2], 100%; in test [3] it was 61%; in test [4], 99%.

Turning to `FC(F)c1nc2ccccc2n1-c1nc(N2CCOCC2)nc(N2CCOCC2)n1` [ZSTK474, 2-(difluoromethyl)-1-[4,6-di(4-morpholinyl)-1,3,5-triazin-2-yl]-1H-benzimidazole], the remaining activity at 1 µM in test [1] came to 87%; in test [2], 100%; in test [3], 100%; in test [4], 70%.

For the compound `COc1ncc(-c2ccc3nccc(-c4ccnnc4)c3c2)cc1NS(=O)(=O)c1ccc(F)cc1F` [Omipalisib], the remaining activity at 1 µM in test [1] worked out at 92%; in test [2], 57%; in test [3] it was 83%; in test [4] it was 100%.
